Patent US20080306002A1, “Combination Therapy for Preventing Angiogenesis” (The General Hospital Corporation, priority 2005, published 2008)

What was measured:
NF-κB = NF-κB reporter assay in DLD-1^HIF-kd cells in hypoxia; type: cell-based
Experimental: Cell lines. DLD-1 and Caco2 cells (ATCC) were stably transfected with HIF-1α siRNA constructs (pSuper.retro, OligoEngine), pSR.HIF-1α1470 or pSR.HIF-1α2192^10. […] Transient transfections were performed using Lipofectamine 2000 (Invitrogen).
(§1) Transfections and Reporter Assays. 0.1-0.2 μg reporter constructs were co-transfected with 2 ng of pRL-CMV (Promega) and luciferase activity was measured with the Dual Luciferase Reporter Assay System (Promega). pRL-null, a promoter-less Renilla construct, was used when cells were co-transfected with a K-ras expression vector^29. The relative luciferase activity was calculated as Firefly/Renilla luciferase activity. The level of ‘hypoxic induction’ was the ratio between the relative luciferase activity in hypoxia to that in normoxia.

IL8 promoter [1] = assay: IL-8 promoter reporter assay in DLD-1^HIF-kd cells in hypoxia; type: cell-based
Experimental: (§2) Cell lines. DLD-1 and Caco2 cells (ATCC) were stably transfected with HIF-1α siRNA constructs (pSuper.retro, OligoEngine), pSR.HIF-1α1470 or pSR.HIF-1α2192^10. […] In a pilot xenograft study, growth, microvascular density, VEGF and IL-8 levels were similar between a pSR.HIF-1α1470 clone and pSR.HIF-1α2192 clone. […] Transient transfections were performed using Lipofectamine 2000 (Invitrogen).
as §1

IL8 promoter [2] = assay: IL-8 promoter reporter assay in Caco2 cells with KRAS^V12 and hypoxia; type: cell-based
Experimental: as §2, §1

IL-8 = IL-8 mRNA (qRT-PCR) in parental DLD-1 cells given t-butyl hydroperoxide; type: cell-based
Experimental: Real-time PCR assay. RNA was extracted using the RNeasy kit (Qiagen) and quantitative reverse-transcription PCR was performed using the SuperScript III platinum Two-Step qRT-PCR Kit (Invitrogen). Primer sequences for VEGF, IL-8, and 18S RNA are available upon request. A fluorogenic SYBR Green and MJ research detection system were used for real time quantification.
Hydrogen peroxide studies. Measurement of H2O2 was performed using the Amplex Red Hydrogen peroxide Assay Kit and the CM-H2DCFDA reagent (both Molecular Probe). Cells were exposed to hypoxia for 10 h, and then culture medium was switched to Krebs-Ringer phosphate buffer^30 containing 100 μM Amplex Red reagent and 0.2 U/mL HRP. After additional incubation in hypoxia for 1 h, fluorescence was measured in 96-well plates by Spectra MAX GEMINI XS microplate fluorometer (Molecure Devices). Cells were also incubated with 10 μM CM-H2DCFDA for 30 minutes in RPMI without phenol red. Fluorescence was measured in 96 well plates and values were normalized to cell number. 20 or 40 μM t-butyl hydroperoxide (t-BH, Sigma) was added to the culture media of DLD-1 cells every 30 minutes for 6 hours, and IL-8 mRNA levels were measured by qRT-PCR.

VEGF = details: plus chemotherapy vs chemotherapy alone; cited from earlier work
Chain of VEGF (P15692 207-311 limits assumed): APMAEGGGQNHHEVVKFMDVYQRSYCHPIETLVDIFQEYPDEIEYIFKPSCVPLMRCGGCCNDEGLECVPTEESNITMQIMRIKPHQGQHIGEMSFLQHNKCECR

C=C(C)[C@H]1Cc2c(ccc3c2O[C@@H]2COc4cc(OC)c(OC)cc4[C@@H]2C3=O)O1 [rotenone]
induction of NF-κB promoter activity by hypoxia (NF-κB): strongly blocked

Cc1ccc(S(=O)(=O)/C=C/C#N)cc1 [BAY 11-7082]
hypoxic induction of the IL8 promoter (IL8 promoter [1]): significantly down-regulated | induction of the IL8 promoter by hypoxia and KRAS^V12 (IL8 promoter [2]): blocked | induction of IL-8 by t-butyl hydroperoxide (IL-8; 5 μM BAY 11-7082): inhibited

Avastin: A monoclonal antibody to VEGF; recombinant humanized antibody (Genentech)
survival (VEGF): greater | time to progression (VEGF): highly significant longer

CC(C)(C)OO [t-butyl hydroperoxide]
production of IL-8 (IL-8; exogenous administration): stimulated

c1ccc2c(c1)[I+]c1ccccc1-2 [diphenylene iodonium]
induction of NF-κB promoter activity by hypoxia (NF-κB): strongly blocked
